The text below walks through data of US20250353891A1 (MEDIMMUNE LIMITED, priority 2022, published 2025).

In general, fraction remaining refers to the share of the starting amount still present when the sample was taken. One may read the EC50 as the midpoint of the concentration-response curve. Usually bioavailability stands for the share of a dose that reaches the circulation, judged against a reference dose that is usually intravenous. A high value points to good availability. Broadly, the half-life is the time in which the quantity being followed falls by half. Lower therefore signals fast loss.

A short description of series [1]: Proteolytic resistance to FasSSGF containing porcine pancreatic pepsin. The class given is in vitro ADME. The following applies: pig, simulated gastric fluid. The method, boiled down: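 Peptide (250 μM stock in FasSSGF) mixed 1:1 with porcine pepsin stock (0.5 mg/mL in FasSSGF) and held at 37° C; samples at 0, 5, 10, 15 and 30 min quenched in ammonium bicarbonate, pH 8. Intact peptide remaining estimated by RP-HPLC peak area, UV 210 nm.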

The target of another series is T1, recombinant Neprilysin (Homo sapiens, UniProt P08473).
T1 construct: purchased R&D Systems 1182-ZNC-010
The series is described as follows: Proteolytic resistance to neprilysin. The class given is in vitro ADME. The following applies: pH 8.3. The protocol: 10.0 μg (˜10 units) recombinant Neprilysin (R&D Systems: 1182-ZNC-010) was reconstituted to 100 μL (100 μg/mL, ˜100 units/mL) in assay buffer (50 mM Tris, 50 mM NaCl, 50 mM NaHCO3, adjusted to pH 8.3) to give the enzyme stock solution. Peptide stock solutions were prepared to a concentration of ˜250 μM (˜1.0 mg/mL of 4 kDa peptide) in assay buffer. 100 μL (10 μg, ˜10 units) of neprilysin stock solution was added to 100 μL of peptide stock solution (1.0 mg/mL, ˜100 μg of peptide) and the mixture was co-incubated in a temperature regulated incubator at 37° C. for the duration of the experiment. 25 μL aliquots (˜ 12.5 μg initial peptide) of the peptide-enzyme mixture were periodically withdrawn (t=0, 30 mins, 1 h, 2 h, 4 h and 24 h) and quenched immediately by addition to an equal volume ([…]) of 10% TFA (v/v) in 1:1 water/acetonitrile to arrest proteolytic activity. The quenched aliquot centrifuged at 7800 rpm, and 30 μL of the supernatant was analyzed by analytical RP-HPLC as follows: Analytical RP-HPLC method: Agilent Polaris C8-A column (4.6×100 mm, 3 micron) eluted with a linear binary gradient of 10-90% MeCN (0.1% TFA v/v) in water (0.1% TFA v/v) over either 10 or 15 mins at 1.5 mL min-1 at 40° C. with detection by UV absorption at 210 nm. Manual integration (AUC) allowed estimation of remaining intact peptide over the time course of the experiment.

A short description of series [2]: Proteolytic resistance to FasSSIF/Pancreatin. The class given is in vitro ADME. The following applies: simulated intestinal fluid. An outline of the steps:
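Peptide (1.0 mg) in pre-warmed FasSSIF, proteolysis started with fresh FasSSIF/USP Pancreatin and held at 37 °C. Aliquots at 0, 5, 10, 15, 30 min quenched in 10% TFA; remaining intact peptide estimated by RP-HPLC peak area, UV 210 nm.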

The test system of series [3] is GLP-1R knockout (KO) mice. The experiment in a line: Glucose change in GLP-1R knockout mice. The class given is in vivo, mouse. The following applies: GLP-1R KO mice, s.c., 3 nmol/kg, 120 min vs 0 min, no somatostatin pretreatment. The method, boiled down:
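GLP-1R knockout mice (n=4-8/group, sorted by body weight) were fasted 2 h, and in some studies pretreated with octreotide 10 mg/kg 30 min before peptide injection. Mice were reused up to 3 times with at least 1-week wash-out.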

A further series deals with wildtype (WT) mice. The experiment in a line: Glucose change in wildtype mice. The class given is in vivo, mouse. The following applies: s.c., 3 nmol/kg, 120 min vs 0 min, no somatostatin pretreatment. An outline of the steps: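 Wildtype mice aged 8-14 weeks, fasted 2 h, sometimes pre-treated with octreotide 10 mg/kg 30 min before peptide injection. Blood glucose by glucometer at -30, 0, 30, 60, 120, 180, 240 and 360 min; n=4-8/group, mice reused up to 3 times with ≥1 week wash-out.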

Series [4] concerns the target human GLP-1 receptor (hGLP-1R) (Homo sapiens, UniProt P43220). The experiment in a line: cAMP production (HTRF) in CHO cells expressing hGLP-1R. The class given is cell-based. Also noted: expressed in transfected cells. The following applies: for EC50: Table 6, peptides modified at position 17, cAMP in CHO hGLP-1R cells, geometric mean, read-out: hGLP-1R EC50; for % Relative Potency Ratio: Table 6, % GLP-1R activity relative to GLP-1 / % GlucR activity relative to glucagon. An outline of the steps:
(§1)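 Read-out: HTRF cAMP (anti-cAMP cryptate donor, cAMP-d2 acceptor in conjugate/lysis buffer), converted to % Delta F and fitted by 4-parameter logistic for EC50. Cell densities were 1×10^5 cells/mL (hGLP-1R) or 2×10^5 cells/mL (hGCGR). Stimulation lasted 30 min at room temperature.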
On the technique in general: cAMP levels reflect the balance of adenylyl cyclase and phosphodiesterase activity.

For series [5], the target named is human glucagon receptor (hGCGR) (Homo sapiens, UniProt P47871). The experiment in a line: cAMP production (HTRF) in CHO cells expressing hGCGR. The class given is cell-based. Also noted: expressed in transfected cells. The following applies: Table 6, peptides modified at position 17; cAMP in CHO hGCGR cells; geometric mean; read-out: hGluc-R EC50. The method, boiled down:
as §1

A further series in a line: in vivo. The following applies: male, C57BL/6, mouse, 10 nmol/kg; for half-life: iv. From the text: Selected test peptides (n=8) were profiled for pharmacokinetic (PK) properties in the mouse after single intravenous (i.v.) or subcutaneous (s.c.) dose. A subset (n=4) meeting the acceptance criteria was subsequently profiled in the dog (single i.v. dose) and non-human primate (single i.v. and s.c. dose). […] Low-binding plasticware containers were used during preparation and sample handling to avoid non-specific binding.
After dosing, PK samples were collected from the dorsal metatarsal vein. Blood of each sample was transferred into plastic micro centrifuge tubes containing EDTA-K2, inverted several times for proper mixing of contents and then placed on wet ice. The blood samples were centrifuged at 4° C. to obtain plasma and stored at −75° C. prior to analysis.
Samples analysis: Samples were analyzed by LC-MS/MS. Calibration standards were injected at the beginning and end of each batch and the determined concentration for each prepared standard was used to construct a calibration curve. Plasma and dose aliquot sample concentrations were determined from the plasma calibration curve.
Data analysis: Plasma concentration data was analyzed by non-compartmental analysis (NCA) using Phoenix Winnonlin v. 8.3.3.33. Linear trapezoidal rule was used for increasing values and log trapezoidal rule was used for decreasing values, applying uniform weighting for lambda_z calculations. Subcutaneous bioavailability was calculated as the ratio AUC(s.c.)0-inf/AUC(i.v.)0-inf. Reported values (Table 18) represent the mean of the individual estimates.

Starred links: 1 amine or outer side, 2 acyl side, 3 side chain; linkers in the order of their positions; H or OH if unused. Non-standard residues stand in square brackets, D forms with d. Residues, ends and D or L forms follow the SMILES beside them. Groups on a side chain read outwards from the residue. *: point of attachment. C20 diacid = O=C(O)CCCCCCCCCCCCCCCCCCC(=O)*; C18 diacid = O=C(O)CCCCCCCCCCCCCCCCC(=O)*; γGlu = O=C(O)[C@H](CCC(=O)[*:2])N[*:1]; Stearoyl = CCCCCCCCCCCCCCCCCC(=O)*; αMeF = C[C@](N)(Cc1ccccc1)C(=O)O; PEG2 = NCCOCCOCCC(=O)O; AEEA = NCCOCCOCC(=O)O; Aib = CC(C)(N)C(=O)O

human GLP-1 receptor (hGLP-1R), sequence (P43220 24-463): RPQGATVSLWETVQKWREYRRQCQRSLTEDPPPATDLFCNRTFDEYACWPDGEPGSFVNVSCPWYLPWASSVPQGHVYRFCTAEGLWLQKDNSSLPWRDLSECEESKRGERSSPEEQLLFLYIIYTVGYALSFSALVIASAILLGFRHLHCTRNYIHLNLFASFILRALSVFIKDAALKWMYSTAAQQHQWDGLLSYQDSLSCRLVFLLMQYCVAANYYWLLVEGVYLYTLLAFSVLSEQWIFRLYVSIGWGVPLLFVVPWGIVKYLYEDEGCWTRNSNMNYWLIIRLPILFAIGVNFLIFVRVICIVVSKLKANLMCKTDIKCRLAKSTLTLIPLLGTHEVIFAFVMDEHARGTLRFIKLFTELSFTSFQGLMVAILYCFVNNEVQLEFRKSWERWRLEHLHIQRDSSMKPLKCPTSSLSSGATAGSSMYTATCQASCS
T1 sequence (P08473 52-750 limits assumed): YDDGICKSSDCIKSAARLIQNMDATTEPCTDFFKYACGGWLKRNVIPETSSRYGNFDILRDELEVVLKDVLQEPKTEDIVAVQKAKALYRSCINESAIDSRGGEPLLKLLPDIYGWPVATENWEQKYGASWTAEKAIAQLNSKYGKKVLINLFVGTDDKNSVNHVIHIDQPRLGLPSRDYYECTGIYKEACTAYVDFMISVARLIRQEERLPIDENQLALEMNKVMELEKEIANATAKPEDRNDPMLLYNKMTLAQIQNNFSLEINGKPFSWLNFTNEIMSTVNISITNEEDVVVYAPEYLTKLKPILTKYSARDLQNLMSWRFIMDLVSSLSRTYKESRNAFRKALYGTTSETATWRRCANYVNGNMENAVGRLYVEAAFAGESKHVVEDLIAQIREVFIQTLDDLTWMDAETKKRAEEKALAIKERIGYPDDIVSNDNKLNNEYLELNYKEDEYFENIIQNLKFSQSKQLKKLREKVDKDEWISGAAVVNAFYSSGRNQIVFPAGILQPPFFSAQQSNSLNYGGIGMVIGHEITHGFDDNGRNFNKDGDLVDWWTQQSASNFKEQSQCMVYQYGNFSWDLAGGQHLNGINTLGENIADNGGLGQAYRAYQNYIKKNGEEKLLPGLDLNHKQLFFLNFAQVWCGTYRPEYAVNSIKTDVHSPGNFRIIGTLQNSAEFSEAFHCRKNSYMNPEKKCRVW
human glucagon receptor (hGCGR), sequence (P47871 26-477): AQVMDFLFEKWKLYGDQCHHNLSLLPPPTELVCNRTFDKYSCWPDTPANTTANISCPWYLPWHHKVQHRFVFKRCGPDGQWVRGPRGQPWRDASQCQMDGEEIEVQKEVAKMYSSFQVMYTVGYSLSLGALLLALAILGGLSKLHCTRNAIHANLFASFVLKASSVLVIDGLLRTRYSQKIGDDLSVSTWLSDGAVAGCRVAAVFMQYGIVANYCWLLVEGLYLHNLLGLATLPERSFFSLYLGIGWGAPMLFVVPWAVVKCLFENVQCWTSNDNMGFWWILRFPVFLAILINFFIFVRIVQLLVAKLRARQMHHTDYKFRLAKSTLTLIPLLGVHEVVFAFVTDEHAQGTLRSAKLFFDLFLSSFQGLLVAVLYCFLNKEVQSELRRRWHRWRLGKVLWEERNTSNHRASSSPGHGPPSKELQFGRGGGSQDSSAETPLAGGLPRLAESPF

In series [1], `CCCCCCCCCCCCCCCCCC(=O)N[C@@H](CCC(=O)N[C@@H](CCC(=O)NCCOCCOCCC(=O)NCCOCCOCCC(=O)NCCCC[C@H](NC(=O)[C@H](CO)NC(=O)[C@H](CC(=O)O)NC(=O)[C@H](CC(C)C)NC(=O)[C@](C)(Cc1ccccc1)NC(=O)[C@H](CCCCN)NC(=O)[C@H](CO)NC(=O)[C@@H](NC(=O)[C@H](CC(=O)O)NC(=O)[C@H](CO)NC(=O)[C@@H](NC(=O)[C@](C)(Cc1ccccc1)NC(=O)[C@H](CO)NC(=O)CNC(=O)[C@H](CCC(N)=O)NC(=O)[C@H](CO)NC(=O)[C@@H](N)Cc1c[nH]cn1)[C@@H](C)O)C(C)C)C(=O)N[C@@H](C)C(=O)N[C@@H](C)C(=O)N[C@@H](CCC(N)=O)C(=O)N[C@@H](CC(=O)O)C(=O)N[C@@](C)(Cc1ccccc1)C(=O)N[C@H](C(=O)N[C@@H](CCC(N)=O)C(=O)NC(C)(C)C(=O)N[C@@H](CC(C)C)C(=O)N[C@@H](CCC(=O)O)C(=O)N[C@@H](C)C(=O)NCC(=O)NCC(N)=O)C(C)C)C(=O)O)C(=O)O` [Peptide 78] (H-HSQGS[αMeF]TSDVSK[αMeF]LDSK([PEG2-PEG2-γGlu-γGlu-Stearoyl])AAQD[αMeF]VQ[Aib]LEAGG-NH2; N-terminus assumed) yielded an amount remaining at 0.25 h, 125 µM of 100% and a fraction remaining at 0.5 h, 125 µM of 100%. Besides, at recombinant Neprilysin (isolated enzyme neprilysin), the fraction remaining at 4 h is 100% and the share remaining at 24 h was 100%. Moreover, the “% intact peptide over time” value on recombinant Neprilysin is on record as 100%. Besides, in series [2], the amount remaining at 5 min, 3.3 mg/mL was 83%; the amount remaining at 10 min, 3.3 mg/mL is 76%; the fraction remaining at 0.25 h, 3.3 mg/mL is 69%; the amount remaining at 0.5 h, 3.3 mg/mL is 58%. Moreover, the “GLP-1R KO % glucose change 120 min” value in series [3] came to 51.3%. In addition, the “WT % glucose change 120 min” value in the series on wildtype (WT) mice was −42.0%. Moreover, in series [4], the EC50 amounted to 0.00114 nM and the “% Relative Potency Ratio” value is 15.6. In series [5], the concentration giving a half-maximal response (EC50) came to 0.00897 nM.
In “in vivo”, `CC(C)C[C@H](NC(=O)[C@H](Cc1c[nH]c2ccccc12)NC(=O)[C@H](CCCNC(=N)N)NC(=O)[C@@H](NC(=O)[C@H](Cc1ccccc1)NC(=O)[C@H](CC(=O)O)NC(=O)[C@H](CCC(N)=O)NC(=O)[C@H](C)NC(=O)[C@H](CCCNC(=N)N)NC(=O)[C@H](CCCCNC(=O)COCCOCCNC(=O)COCCOCCNC(=O)CC[C@H](NC(=O)CCCCCCCCCCCCCCCCC(=O)O)C(=O)O)NC(=O)[C@H](CCCCN)NC(=O)[C@H](CC(=O)O)NC(=O)[C@H](CC(C)C)NC(=O)[C@](C)(Cc1ccccc1)NC(=O)[C@H](CCCCN)NC(=O)[C@H](CO)NC(=O)[C@@H](NC(=O)[C@H](CC(=O)O)NC(=O)[C@H](CO)NC(=O)[C@@H](NC(=O)[C@H](Cc1ccccc1)NC(=O)[C@@H](NC(=O)CNC(=O)[C@H](CCC(N)=O)NC(=O)C(C)(C)NC(=O)[C@@H](N)Cc1c[nH]cn1)[C@@H](C)O)[C@@H](C)O)C(C)C)C(C)C)C(=O)N[C@@H](CC(C)C)C(=O)NC(C)(C)C(=O)N[C@@H](CCC(=O)O)C(N)=O` [Peptide 420] (H-H[Aib]QGTFTSDVSK[αMeF]LDKK([AEEA-AEEA-γGlu-C18 diacid])RAQDFVRWLL[Aib]E-NH2; N-terminus assumed) gave a bioavailability of 49% and a half-life of 5.7 h. In series [4], the EC50 turned out to be 0.0231 nM and the “% Relative Potency Ratio” value came to 3.2. Moreover, the 50% effective concentration (EC50) in series [5] was determined as 0.0369 nM.
The like results for `CC(C)C[C@H](NC(=O)[C@H](Cc1c[nH]c2ccccc12)NC(=O)[C@H](CCC(N)=O)NC(=O)[C@@H](NC(=O)[C@H](Cc1ccccc1)NC(=O)[C@H](CC(=O)O)NC(=O)[C@H](CCCNC(=N)N)NC(=O)[C@H](C)NC(=O)[C@H](CCCNC(=N)N)NC(=O)[C@H](CCCCNC(=O)COCCOCCNC(=O)COCCOCCNC(=O)CC[C@H](NC(=O)CCCCCCCCCCCCCCCCC(=O)O)C(=O)O)NC(=O)[C@H](CCCCN)NC(=O)[C@H](CC(=O)O)NC(=O)[C@H](CC(C)C)NC(=O)[C@](C)(Cc1ccccc1)NC(=O)[C@H](CCCCN)NC(=O)[C@H](CO)NC(=O)[C@@H](NC(=O)[C@H](CC(=O)O)NC(=O)[C@H](CO)NC(=O)[C@@H](NC(=O)[C@H](Cc1ccccc1)NC(=O)[C@@H](NC(=O)CNC(=O)[C@H](CCC(N)=O)NC(=O)C(C)(C)NC(=O)[C@@H](N)Cc1c[nH]cn1)[C@@H](C)O)[C@@H](C)O)C(C)C)C(C)C)C(=O)N[C@@H](CC(C)C)C(=O)NC(C)(C)C(=O)N[C@@H](CCC(=O)O)C(N)=O` [Peptide 472] (H-H[Aib]QGTFTSDVSK[αMeF]LDKK([AEEA-AEEA-γGlu-C18 diacid])RARDFVQWLL[Aib]E-NH2; N-terminus assumed) were, in that order, 83%, 2.9 h, 0.00763 nM, 2.9 and 0.0111 nM.
For `CC(C)C[C@H](NC(=O)[C@H](CC(C)C)NC(=O)[C@H](Cc1c[nH]c2ccccc12)NC(=O)[C@H](CCCNC(=N)N)NC(=O)[C@@H](NC(=O)[C@H](Cc1ccccc1)NC(=O)[C@H](CC(=O)O)NC(=O)[C@H](CCC(N)=O)NC(=O)[C@H](C)NC(=O)[C@H](CCCNC(=N)N)NC(=O)[C@H](CCCCNC(=O)COCCOCCNC(=O)COCCOCCNC(=O)CC[C@H](NC(=O)CCCCCCCCCCCCCCCCCCC(=O)O)C(=O)O)NC(=O)[C@@H](NC(=O)[C@H](CC(=O)O)NC(=O)[C@H](CC(C)C)NC(=O)[C@](C)(Cc1ccccc1)NC(=O)[C@H](CCCCN)NC(=O)[C@H](CO)NC(=O)[C@@H](NC(=O)[C@H](CC(=O)O)NC(=O)[C@H](CO)NC(=O)[C@@H](NC(=O)[C@H](Cc1ccccc1)NC(=O)[C@@H](NC(=O)CNC(=O)[C@H](CCC(N)=O)NC(=O)C(C)(C)NC(=O)[C@@H](N)Cc1c[nH]cn1)[C@@H](C)O)[C@@H](C)O)C(C)C)[C@@H](C)O)C(C)C)C(=O)N[C@@H](C)C(=O)NC(C)(C)C(=O)NCC(N)=O` [Peptide 477] (H-H[Aib]QGTFTSDVSK[αMeF]LDTK([AEEA-AEEA-γGlu-C20 diacid])RAQDFVRWLLA[Aib]G-NH2; N-terminus assumed) the same measures were 50%, 8.9 h, 0.0541 nM, 4.3 and 0.117 nM.
